Square brackets hold non-standard residues; d marks the D form. Ends that are not written are not given here.
Assays:
C57BL/6J ob/ob mice [1] = assay: Intraperitoneal glucose tolerance test (IPGTT) after chronic administration; type: in vivo, mouse
Description: An intraperitoneal glucose tolerance test was conducted to determine whether the clearance of a glucose load was enhanced. […], five receiving saline and five receiving peptide 3. At 14 days after chronic administration of saline or peptide 3, mice were fasted for 4 hours, then anaesthetized and eye-bled for day 14 plasma metabolite analysis. Half of each saline or peptide 3 treatment group was given a single intraperitoneal injection of glucose (1 g/kg dissolved in saline), and the other half saline (equivalent dose). Mice were eye-bled at 30, 60 and 120 minutes after glucose administration, and blood glucose levels were determined.

[2] = tested on: Zucker fatty (fa/fa) rats; assay: Basal blood glucose determination after i.p. peptide; type: in vivo, rat; conditions: 10 μmol/kg body weight i.p., over 150 min, vs saline
Description: Overnight-fasted Zucker fatty(fa/fa) female rats were anaesthetized with sodium pentobarbitone (60 mg/kg body weight). After 45 min, basal blood glucose samples were taken from the tail vein, followed immediately by intraperitoneal (i.p.) injection of saline (control) or the peptide analogue (test, 10 μmol/kg body weight) in 0.4 ml of saline. Blood samples were taken at 15, 30, 60, 90, 120, 150 minutes after injection, and the blood glucose level in each sample was measured immediately by the glucose oxidase method, using a YSI Model-2300 STAT glucose analyzer (Yellow Spring, Ohio). Six animals for each group were used.
The reduction of basal blood glucose levels in animals by different peptide analogues administered intraperitoneally (i.p.)at a dose of 10 μmol/kg body weight was measured for over 150 min.

[3] = tested on: Zucker (fa/fa) rat hemidiaphragm muscle; assay: In vitro glycogen synthesis (glucose incorporation into glycogen) in hemidiaphragm muscle with exogenous insulin; type: cell-based
Description: In vitro insulin-potentiating effects of the synthetic peptide analogues were assessed by measuring the rates of exogenous glucose incorporation into glycogen in rat hemidiaphragms (Lim et al, 1992). Hemidiaphragms from overnight-fasted Zucker fatty(fa/fa) female rats were dissected, and divided into segments of approximate 35-50 mg each. Tissues from the same rat were used for all groups. The tissue was incubated in 2 ml of Krebs-Ringer bicarbonate (KRB) buffer (pH 7.4) containing [^14C]glucose (5.5 mM, final specific activity 0.05 mCi/mmol) under an atmosphere of 95% 02-5% CO2 at 37° C. for 1.5 hr. After incubation, tissues were removed, washed with cold buffer and blotted. Tissues were digested, the muscle glycogen was precipitated and the ^14C-radioactivity was counted in a Wallac 1410 liquid scintillation counter. The biological activity of peptide analogues was measured as the rate of mmol glucose incorporation into muscle glycogen/g tissue/hr.
The sensitivity of hemidiaphragm muscle tissue to insulin (0.1-100 mU/ml) on glycogen synthesis was first analyzed. The dose response curves for peptide analogues on the insulin-potentiating effect to glycogen synthesis were then measured using cumulative increasing concentrations (10^−3 10 μmol/ml) of peptides in the presence of insulin (1 mU/ml). The biological activity of each peptide analogue was measured as the rate of glucose incorporation into muscle glycogen (μmol/g tissue/hr), and represented by the mean±SEM from eight determinations.
To determine the insulin-potentiating effect of the peptide analogues, the rates of incorporation of glucose into muscle glycogen were measured. The rates of glycogen synthesis (μmol/g tissue/hr) were 0.52±0.05, 0.60±0.04, 1.27±0.06 and 1.52±0.07 inresponse to 0.33, 1, 3.33 and 10 mU/ml insulin respectively, as shown in FIG. 1.
The insulin-potentiating effect of the peptide analogues was then observed by studying their dose response. curves for glucose incorporation into glycogen in the presence of 1 mU/ml exogenous insulin. The effects of peptides 1, 3, 4, 6, 7, 8 and 10 were evident at doses higher than 0.01 μmol/ml, and continued to increase with increasing peptide concentration to 1 μmol/ml, as shown in FIGS. 2A and 2B.
The activity of each analogue was assessed by in vitro measurement of glycogen synthesis in muscle, as described above.

C57BL/6J ob/ob mice [4] = assay: Plasma insulin radioimmunoassay after chronic administration; type: in vivo, mouse; conditions: after 14 days treatment
Description: (§1) Mice selected for this experiment were initially fasted for 4 hours, then anaesthetized with a single injection of sodium pentobarbitone (35 mg/kg). A blood sample was collected from each mouse by eye-bleed for the assessment of plasma glucose and insulin levels (day 0). Collected blood samples were stored at −20° C. until analysis was performed. A single Alzet mini-pump (#1002, Alzet, USA) containing either sterile saline (100 μl; n=14) or peptide 3 (20 μmol/kg dissolved in 100 μl saline; n=14) was inserted under the skin between the scapula of the mice. The incision was clamped and disinfected using iodine. The pumps were left for 14 days, and 5 body-weight, and food measurements were recorded during this period, at days 0, 4, 7, 10 and 14. Blood samples were collected on day 0 and 14 days post-saline (n=5) or peptide 3 (n=4) administration for plasma glucose analysis. The results reported below are expresses as mean +/− standard error. (a) Plasma insulin Plasma insulin levels were quantitatively determined in ob/ob mice, using an insulin radioimmunoassay kit (Linco Research Inc. USA) according to the manufacturer's instructions.

C57BL/6J ob/ob mice [5] = assay: Chronic administration (14 day mini-pump): body weight, food intake, plasma glucose; type: in vivo, mouse
Description: as §1, with “The effects of chronic administration of peptide 3 in the C57Bl/6J ob/ob diabetic model were evaluated by measurements of a number of parameters, including body weight, food intake, plasma glucose levels, plasma insulin levels, intraperitoneal glucose tolerance test and glucose uptake by adipose tissue (ex vivo). Male and female C57BL/6J ob/ob mice aged 12-15 weeks old were used. Fasting blood glucose levels were determined for all mice 14 days prior to experimentation. Only mice with fasting blood glucose levels >7.0 mmol/l were used in the study. Mice” for “Mice”, “error.” for “error. (a) Plasma insulin Plasma insulin levels were quantitatively determined in ob/ob mice, using an insulin radioimmunoassay kit (Linco Research Inc. USA) according to the manufacturer's instructions.”

[6] = 20 μmol/kg by mini-pump, 14 days

Arg-D-Ala-Phe-Phe-NH2 (R[dA]FF-NH2; N-terminus assumed; SMILES C[C@@H](NC(=O)[C@@H](N)CCCNC(=N)N)C(=O)N[C@@H](Cc1ccccc1)C(=O)N[C@@H](Cc1ccccc1)C(N)=O) [Peptide 3]
increase in plasma glucose after glucose bolus (C57BL/6J ob/ob mice [1]; 30 min after 1 g/kg glucose i.p.): 115% | reduction of blood glucose compared to saline-treated mice (C57BL/6J ob/ob mice [1]; 120 min after glucose injection): 47% | lower basal blood glucose level compared to saline-treated mice (C57BL/6J ob/ob mice [1]; prior to glucose injection, day 14): 46.1% | hypoglycaemic effect (reduction of basal blood glucose level) [2]: significant hypoglycaemic effects | hypoglycaemic effect (reduction of basal blood glucose level) ([2]; listed as Arg-D-Ala-Phe-Phe amide): Increased potency | maximum stimulation of the rate of glycogen synthesis ([3]; 10 μmol/ml peptide, 1 mU/ml insulin): up to 1.44±0.04 mol/g tissue/hr | in vitro glycogen synthesis ([3]; 0.01-1 μmol/ml peptide (p<0.05), FIG. 2A): significantly increased | Activity ([3]; Table 6 (corrected), summary of Table 5): active | plasma insulin level (C57BL/6J ob/ob mice [4]): 17.10 ± 5.99 ng/mL | body weight gain vs saline-infused mice (C57BL/6J ob/ob mice [5]; [6]): no significant difference | food intake vs saline-infused mice (C57BL/6J ob/ob mice [5]; [6]): no significant difference | plasma glucose levels vs saline-infused control mice (C57BL/6J ob/ob mice [5]; continuous infusion 14 days (P<0.025)): significantly decreased | reduction in plasma glucose levels (C57BL/6J ob/ob mice [5]; day 0 to day 14, 4 h fasted): 11.60 ± 3.63 mmol/L
